Source: patent publication US20150272951A1, “COMPOUNDS FOR THE TREATMENT OF LYSOSOMAL STORAGE DISEASES” (The Hospital for Sick Children, priority 2010, published 2015)

biological target: mutant Hex A (Homo sapiens, UniProt P06865+P07686); assay: not given; type: cell-based; conditions: maximum increase in Hex A activity relative to untreated cells (=1)
Method: Using the graphs of FIGS. 5-7, the EC50 values for Hex A rescue were determined as well as the maximum increase and range of increase in Hex A activity. These values are tabulated in Table 2, together with the IC50 values for Hex A inhibition that were determined in Example 3.

SMILES | Max Increase
CCc1nc(N)nc(N)c1-c1ccc(Cl)cc1 [PYR, Pyrimethamine, reference compound] | 2.0

same assay, conditions: maximum increase in Hex A activity relative to untreated cells (=1); listed as PYR (vsa7)

SMILES | Max Increase
CCc1nc(N)nc(N)c1-c1ccc(Cl)cc1 [PYR, Pyrimethamine, reference compound] | 1.4

same assay, conditions: range of increase in Hex A activity

SMILES | Range of Increase
CCc1nc(N)nc(N)c1-c1ccc(Cl)cc1 [PYR, Pyrimethamine, reference compound] | 4

test system: patient fibroblasts; assay: Cell viability by Alamar Blue; type: cell-based, human; conditions: concentrations greater than 100 μM, five days of treatment

SMILES | reduction of viability compared to PYRdCl treated patient fibroblasts
CCc1nc(N)nc(N)c1-c1ccc(Cl)cc1 [PYR, Pyrimethamine, reference compound] | more than 20%

test system: mutant Hex A; assay: not given; type: cell-based, human; conditions: 33.33 μg/ml, five days
Method: The cells were harvested and assayed for Hex A using a fluorescent artificial substrate, MUGS. The increase in Hex A activity relative to that of untreated cells is given, i.e. no change in activity=1;
Cells were grown in the indicated concentrations of either drug for five days. The cells were harvested and assayed for Hex A activity using a fluorescent artificial substrate, MUGS. The increase in Hex A activity relative to that of untreated cells is given, i.e. no change in activity=1.
Two of the other cultures were un-genotyped infantile Tay-Sachs disease fibroblast cell lines. […] The increase in Hex A activity relative to that of untreated cells is given, i.e., no change in activity=1. The decrease in Hex A activity at high concentrations represents cell toxicity.

SMILES | cell toxicity
CCc1nc(N)nc(N)c1-c1ccc(Cl)cc1 [PYR, Pyrimethamine, reference compound] | cell death was occurring

same assay, conditions: fibroblasts expressing αG269S, four days (FIG. 1)

SMILES | rescue of mutant Hex A activity compared with NGT
CCc1nc(N)nc(N)c1-c1ccc(Cl)cc1 [PYR, Pyrimethamine, reference compound] | better able to rescue mutant Hex A activity

biological target: Hex A (Homo sapiens, UniProt P06865+P07686); assay: Hex A inhibition (IC50 from dose response curves of Hex A residual activity); conditions: IC50 (μM ± Err), Hex A inhibition, values determined in Example 3; pH not given;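 further: remaining Hex A enzyme activity recorded across rising inhibitor doses, with dose response curves run at pH 6.5 and again at pH 4.5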
Sequence (P06865 89-529): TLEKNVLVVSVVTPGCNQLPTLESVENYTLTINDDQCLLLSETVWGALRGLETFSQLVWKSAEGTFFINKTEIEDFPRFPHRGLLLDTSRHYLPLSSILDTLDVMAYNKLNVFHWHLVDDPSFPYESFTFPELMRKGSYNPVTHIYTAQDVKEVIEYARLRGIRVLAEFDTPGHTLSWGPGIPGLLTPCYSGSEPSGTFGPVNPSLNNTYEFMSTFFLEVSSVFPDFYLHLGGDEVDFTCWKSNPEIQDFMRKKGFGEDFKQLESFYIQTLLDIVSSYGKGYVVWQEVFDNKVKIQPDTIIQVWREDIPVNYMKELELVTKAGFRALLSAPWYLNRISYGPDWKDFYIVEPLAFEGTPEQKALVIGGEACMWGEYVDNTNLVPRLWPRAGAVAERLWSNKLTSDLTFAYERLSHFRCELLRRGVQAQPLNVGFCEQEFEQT
Sequence (P07686 122-311 limits assumed): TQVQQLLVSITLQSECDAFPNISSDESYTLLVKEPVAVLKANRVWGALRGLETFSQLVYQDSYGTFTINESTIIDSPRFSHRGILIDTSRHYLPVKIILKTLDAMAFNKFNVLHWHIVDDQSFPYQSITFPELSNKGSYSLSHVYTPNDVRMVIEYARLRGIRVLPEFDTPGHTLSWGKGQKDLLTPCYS
Sequence (P07686 315-556 limits assumed): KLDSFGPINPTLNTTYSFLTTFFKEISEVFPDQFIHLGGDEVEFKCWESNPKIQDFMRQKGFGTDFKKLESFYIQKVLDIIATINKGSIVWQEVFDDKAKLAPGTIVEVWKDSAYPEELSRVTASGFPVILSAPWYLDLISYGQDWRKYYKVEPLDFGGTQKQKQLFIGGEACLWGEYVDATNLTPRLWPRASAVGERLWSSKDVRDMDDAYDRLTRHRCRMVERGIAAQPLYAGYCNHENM

SMILES | IC50 [µM]
CCCCc1nc(N)nc(N)c1-c1ccc(C(F)(F)F)cc1 [zjm1-115] | 142 ± 3
Cc1nc(N)nc(N)c1-c1ccc(Cl)cc1 [jts22] | 556 ± 1
CC(C)c1nc(N)nc(N)c1-c1ccc(Cl)cc1 [jts20] | 406 ± 2

same assay, conditions: IC50 (μM ± Err), in brackets, brackets: IC50 extrapolated from an incomplete dose response curve

SMILES | IC50 [µM]
CCc1ncnc(N)c1-c1ccc(C(F)(F)F)cc1 [vsa6] | 936
CCCCc1nc(N)nc(N)c1-c1ccc(OC)cc1 [zjm1-113] | 870
CCc1ncncc1-c1ccc(C(F)(F)F)cc1 [vsa4] | 2110
Cc1ccc(-c2c(C)nc(N)nc2N)cc1 [ksh3-14c] | 3830
Cc1cc(C)cc(-c2c(C)nc(N)nc2N)c1 [ksh3-14e] | 1230
CCCc1nc(N)nc(N)c1-c1ccccc1C [ksh3-33c] | 825
CCCCc1nc(N)nc(N)c1-c1ccc(C)cc1 [zjm1-111] | 600
CCCCc1nc(N)nc(N)c1-c1ccc(Cl)cc1 [zjm1-91] | 1360
Cc1nc(N)nc(N)c1-c1ccccc1 [ksh3-05] | 1230
Cc1nc(N)nc(N)c1-c1ccc(F)cc1 [ksh3-14a] | 923
CCC1=C(c2ccc(Cl)cc2)C(N)=NCN1 [vsa8] | 967
CCc1[nH]c(=O)nc(N)c1-c1ccc(Cl)cc1 [vsa9] | 400
Cc1cccc(-c2c(C)nc(N)nc2N)c1 [ksh3-14d] | 10400
Cc1ccc(-c2c(C)nc(N)nc2N)cc1 [ksh3-14b] | 1720

same assay, conditions: IC50 (μM), compounds with bracketed IC50; extrapolated from an incomplete dose response curve

SMILES | IC50 [µM]
CCc1ncnc(N)c1-c1ccc(C(F)(F)F)cc1 [vsa6] | 936
CCCCc1nc(N)nc(N)c1-c1ccc(OC)cc1 [zjm1-113] | 870
Cc1ccc(-c2c(C)nc(N)nc2N)cc1 [ksh3-14c] | 3830
Cc1cc(C)cc(-c2c(C)nc(N)nc2N)c1 [ksh3-14e] | 1230
CCCCc1nc(N)nc(N)c1-c1ccc(C)cc1 [zjm1-111] | 600
CCCCc1nc(N)nc(N)c1-c1ccc(Cl)cc1 [zjm1-91] | 1360
Cc1nc(N)nc(N)c1-c1ccccc1 [ksh3-05] | 1230
Cc1nc(N)nc(N)c1-c1ccc(F)cc1 [ksh3-14a] | 923
CCC1=C(c2ccc(Cl)cc2)C(N)=NCN1 [vsa8] | 967
Cc1ccc(-c2c(C)nc(N)nc2N)cc1 [ksh3-14b] | 1720

same assay, conditions: IC50 (μM), without error; pH not stated

SMILES | IC50 [µM]
CCCCc1nc(N)nc(N)c1-c1ccc(C(F)(F)F)cc1 [zjm1-115] | 142
Cc1nc(N)nc(N)c1-c1ccc(Cl)cc1 [jts22] | 556
CC(C)c1nc(N)nc(N)c1-c1ccc(Cl)cc1 [jts20] | 406

same assay, conditions: pH dependence of Hex A inhibition

SMILES | pKHA
CC1=N[C@@H]2[C@@H](O)[C@H](O)[C@@H](CO)O[C@@H]2S1 [NGT, NAG-thiazoline, reference compound] | 4.5
CCc1nc(N)nc(N)c1-c1ccc(Cl)cc1 [PYR, Pyrimethamine, reference compound] | 6.5
